Patent publication US20200360331A1, “COMPOSITIONS COMPRISING 15-HEPE AND/OR 15-HETrE AND METHODS OF TREATING OR PREVENTING CARDIOMETABOLIC DISEASE, METABOLIC SYNDROME, AND/OR RELATED DISEASES” (Afimmune Limited, priority 2019, published 2020)

Legend:
[1] = tested on: TβR-I (type I TGF-β receptor); assay: Sucrose density gradient analysis in Mv1Lu cells, TβR-I; assay type: cell-based, mink
Protocol: (§1) Sucrose gradient ultracentrifugation and confocal microscopy were used to identify 15-HEPE induced microdomain translocation of TGF-β receptors by sucrose. Sucrose density gradient analysis of TGF-β receptors was conducted in the plasma membranes of Mv1Lu cells (mink lung epithelial cell) treated with 100 μM of 15-HEPE and an equal volume of DMSO (dimethyl sulfoxide) at 37° C. for 0, 1, 4, and 24 hours, and the cell lysates from these treated cells were subjected to sucrose density gradient ultracentrifugation. The sucrose gradient fractions were then analyzed by Western blot analysis using anti-TβR-I (type I TGF-β receptor), anti-TβR-II (type II TGF-β receptor), anti-TβR-III (type III TGF-β receptor, betaglycan), anti-EGFR (epidermal growth factor receptor), and anti-caveolin-1 antibodies. The lipid raft/caveolae, and non-lipid raft microdomain localization of TβR-I, TβR-II, TβR-III, EGFR and caveolin-1 in the plasma membrane of untreated cells or cells treated with 15-HEPE were assessed to determine the effects of 15-HEPE on the membrane microdomain localization of the TGF-β receptors. […]

caveolin-1 = assay: Sucrose density gradient analysis in Mv1Lu cells, caveolin-1; assay type: cell-based, mink; conditions: 100 μM, 0, 1, 4 and 24 hours
Protocol: as §1

NAFLD patients = assay: Phase IIa NAFLD study: lipid profile; assay type: in vivo, human; conditions: for Triglycerides (median placebo-corrected % change from baseline): 2 g
Excerpt: Exploratory analysis: The exploratory analysis included analysis of lipid and metabolic parameters including total cholesterol, triglycerides, very low-density lipoprotein cholesterol (VLDL-C), low density lipoprotein cholesterol (LDL-C), high density lipoprotein cholesterol (HDL-C), non-high-density lipoprotein cholesterol (non-HDL-C), remnant-like particle cholesterol (RLP-C), fasting glucose, insulin, free fatty acids and hemoglobin A1C (HbA1C). Additional exploratory analysis included high throughput lipidomics and proteomics.
The study was planned to include 96 evaluable patients with 32 patients randomized per treatment group.
Clinical Laboratory Safety Tests: Safety tests were performed for hematology, serum biochemistry, coagulation, lipid profile, and urinalysis: Blood and urine samples were taken as per the Study Flow Chart in Table 19 for routine hematology, serum biochemistry, coagulation and urinalysis tests, along with a Lipid Profile. All samples were analyzed in the central laboratory. All subjects were fasted for a minimum of 8 hours prior to blood sampling. If subjects had not fasted for a minimum of 8 hours, the duration of fasting time was recorded, and subjects encouraged to fast appropriately for the next clinical visit. • Hematology: Full blood count to include red cell count, hemoglobin, hematocrit, white cell count, differential white cell count, platelet count and reticulocyte count. • Serum biochemistry: Urea (blood urea nitrogen; BUN), creatinine, uric acid, total bilirubin, Indirect and Direct Bilirubin, sodium, bicarbonate potassium, phosphorus, calcium chloride, alkaline phosphatase (ALP), aspartate aminotransferase (AST), alanine aminotransferase (ALT), ALT/AST ratio, lactate dehydrogenase (LDH), creatine phosphokinase (CPK), albumin, total protein, cholesterol, triglycerides, glucose, C-reactive protein (CRP). • Coagulation: prothrombin time (PT), international normalized ratio (INR) and activated partial […]. • Lipid Profile: LDL, HDL, and VLDL-C. • Urinalysis: pH, protein, glucose, blood, ketones, leukocytes, leukocyte esterase, bilirubin, specific gravity, urobilinogen and nitrate. Reflex micro if blood, protein, leukocyte esterase or nitrate/nitrite are present.

## CC/C=C\CC(O)/C=C/C=C\C/C=C\C/C=C\CCCC(=O)O (centres unmarked) [DS102, 15-hydroxy-eicosa-5Z,8Z,11Z,13E,17Z-pentaenoic acid]
[1]; 100 μM, 0, 1, 4 and 24 hours
  abundance of TβR-I proteins: did not affect the abundance of TβR-I proteins
[1]; 100 μM, 24 hours
  translocation of TβR-I to lipid-raft: induced translocation of TβR-I to lipid-raft
caveolin-1
  localization and abundance of caveolin-1: did not change the localization and abundance
NAFLD patients; Week 16, Full Analysis Set
  Triglycerides (median placebo-corrected % change from baseline): −40.2%
NAFLD patients; Week 16, Subgroup: High Triglycerides (>200 mg/dL)
  Triglycerides (median placebo-corrected % change from baseline): −20.4%
NAFLD patients; Week 16, Subgroup: Triglycerides > Upper Limit Normal (>150 mg/dL)
  Triglycerides (median placebo-corrected % change from baseline): −39.0%
NAFLD patients; NAFLD patients, Week 16
  triglyceride levels: lowered
NAFLD patients; Week 16, safety analysis set (SAS)
  lipid profile (total cholesterol, VLDL-C, non-HDL-C, RLP cholesterol, triglyceride levels): significantly improved
